Read-outs that look alike come from different tables or passages of the source.
Target: T1, hKCNQ2/3 (Homo sapiens, UniProt O43525+O43526)
T1 construct: expressed in transfected cells; host or cells: CHO-K1
Test: Fluorescence assay using a voltage sensitive dye (fluorimetry)
Format: cell-based
Details: for Fluorimetry % Efficacy @ 10 μM (reti-gabine = 100%) / Emax at 10 µM: relative to retigabine = 100%
Procedure: Fluorescence Assay using a Voltage Sensitive Dye
Human CHO-K1 cells expressing KCNQ2/3 channels are cultivated adherently at 37° C., 5% CO2 and 95% humidity in cell culture bottles (e.g. 80 cm^2 TC flasks, Nunc) with DMEM-high glucose (Sigma Aldrich, D7777) including 10% FCS (PAN Biotech, e.g. 3302-P270521) or alternatively MEM Alpha Medium (1×, liquid, Invitrogen, #22571), 10% fetal calf serum (FCS) (Invitrogen, #10270-106, heat-inactivated) and the necessary selection antibiotics.
Before being sown out for the measurements, the cells are washed with a 1×DPBS buffer without Ca^2+/Mg^2+ (e.g. Invitrogen, #14190-094) and detached from the bottom of the culture vessel by means of Accutase (PAA Laboratories, #L11-007) (incubation with Accutase for 15 min at 37° C.). The cell count then present is determined using a CASY™ cell counter (TCC model, Schärfe System) in order subsequently to apply, depending on the density optimization for the individual cell line, 20,000-30,000 cells/well/100 μl of the described nutrient medium to 96-well measuring plates of the Corning™ CellBIND™ type (Flat Clear Bottom Black Polystyrene Microplates, #3340). Incubation is then carried out for one hour at room temperature, without gassing or adjusting the humidity, followed by incubation for 24 hours at 37° C., 5% CO2 and 95% humidity.
The voltage-sensitive fluorescent dye from the Membrane Potential Assay Kit (Red™ Bulk format part R8123 for FLIPR, MDS Analytical Technologies™) is prepared by dissolving the contents of a vessel Membrane Potential Assay Kit Red Component A in 200 ml of extracellular buffer (ES buffer, 120 mM NaCl, 1 mM KCl, 10 mM HEPES, 2 mM CaCl2, 2 mM MgCl2, 10 mM glucose; pH 7.4). After removal of the nutrient medium, the cells are washed with 200 μl of ES buffer, then covered with a layer of 100 μl of the dye solution prepared above and incubated for 45 min at room temperature with the exclusion of light.
The fluorescence measurements are carried out with a BMG Labtech FLUOstar™, BMG Labtech NOVOstar™ or BMG Labtech POLARstar™ instrument (525 nm excitation, 560 nm emission, Bottom Read mode). After incubation of the dye, 50 μl of the test substances in the desired concentrations, or 50 μl of ES buffer for control purposes, are introduced into separate cavities of the measuring plate and incubated for 30 min at room temperature while being shielded from light. The fluorescence intensity of the dye is then measured for 5 min and the fluorescence value F1 of each well is thus determined at a given, constant time. 15 μl of a […] KCl solution ([…]) are then added to each well. The change in fluorescence is subsequently measured until all the relevant measured values have been obtained (mainly 5-30 min). At a given time after KCl application, a fluorescence value F2 is determined, in this case at the time of the fluorescence peak.
For calculation, the fluorescence intensity F2 is compared with the fluorescence intensity F1, and the agonistic activity of the target compound on the potassium channel is determined therefrom. F2 and F1 are calculated as follows: […]
In order to determine whether a substance has agonistic activity, […]
for example, can be compared with […]
is determined by adding to the reaction batch only the buffer solution instead of the test substance, determining the value F1K of the fluorescence intensity, adding the potassium ions as described above, and measuring a value F2K of the fluorescence intensity. F2K and F1K are then calculated as follows: […]
A substance has an agonistic activity on the potassium channel when […]
Independently of the comparison of […]
it is possible to conclude that a target compound has agonistic activity if an increase in […]
is to be observed as the dosage of the target compound increases.
Calculations of EC50 and IC50 values are carried out with the aid of ‘Prism v4.0’ software (GraphPad Software™).

[1] = 10 μM, CHO-K1 cells expressing KCNQ2/3, Table 3
[2] = CHO-K1 cells expressing KCNQ2/3, Table 3
[3] = CHO-K1, 10 μM, CHO-K1 cells expressing KCNQ2/3, Table 3, read-out: Fluorimetry % Efficacy @ 10 μM (reti-gabine = 100%)

Row | SMILES | Emax at 10 µM [3] | EC50 [2] | further results
1 | O=C(NCc1cccc(C(F)(F)F)c1)C1CCCCC1C(=O)N1CCc2sccc2C1c1ccccc1 (mixture of isomers) [compound 31] | – | – | Fluorimetry % Efficacy @ 10 μM (reti-gabine = 100%) [1]: −44%; IC50 [2]: 0.25 µM
2 | O=C(CCC(=O)N1CCn2cccc2C1c1cccs1)NCc1cccc(C(F)(F)F)c1 (stereo not shown) [Example No. 76 of WO 2008/046582, reference compound] | – | – | Emax at 10 µM (10 μM, comparison experiments table, read-out: Fluorimetry % Efficacy @ 10 μM (retigabine = 100%)): 113%; EC50 (comparison experiments table): 3.29 µM
3 | Cc1cccc(C2c3ccsc3CCN2C(=O)CCC(=O)NCc2cccc(C(F)(F)F)c2)c1 (stereo not shown) [compound 4] | 102% | 0.456 µM | –
4 | Cc1ccc(C2c3ccsc3CCN2C(=O)CCC(=O)NCc2cccc(C(F)(F)F)c2)cc1 (stereo not shown) [compound 5] | 61% | > 1.66 µM | –
5 | O=C(CCC(=O)N1CCc2sccc2C1c1ccccc1F)NCc1cccc(C(F)(F)F)c1 (stereo not shown) [compound 6] | 133% | 0.284 µM | –
6 | O=C(CCC(=O)N1CCc2sccc2C1c1ccc(F)cc1)NCc1cccc(C(F)(F)F)c1 (stereo not shown) [compound 7] | 132% | 0.348 µM | –
7 | O=C(CCC(=O)N1CCc2ccsc2C1c1ccccc1)NCc1cccc(C(F)(F)F)c1 (stereo not shown) [compound 9] | 110% | 0.407 µM | –
8 | Cc1cc2c(s1)CCN(C(=O)CCC(=O)NCc1cccc(C(F)(F)F)c1)C2c1ccccc1 (stereo not shown) [compound 10] | 121% | 0.382 µM | –
9 | O=C(CCC(=O)N1CCc2sccc2C1c1ccccc1)NCc1ccc(C(F)(F)F)cc1 (stereo not shown) [compound 13] | 51% | 0.375 µM | –
10 | COc1ccccc1CNC(=O)CCC(=O)N1CCc2sccc2C1c1ccccc1 (stereo not shown) [compound 14] | -54% | – | –
11 | COc1cccc(CNC(=O)CCC(=O)N2CCc3sccc3C2c2ccccc2)c1 (stereo not shown) [compound 15] | -46% | – | –
12 | COc1ccc(CNC(=O)CCC(=O)N2CCc3sccc3C2c2ccccc2)cc1 (stereo not shown) [compound 16] | 21% | – | –
13 | O=C(CCC(=O)N1CCc2sccc2C1c1ccccc1)NCc1cccc(F)c1 (stereo not shown) [compound 18] | 11% | 2.18 µM | –
14 | Cc1cccc(CNC(=O)CCC(=O)N2CCc3sccc3C2c2ccccc2)c1 (stereo not shown) [compound 19] | -45% | – | –
15 | Cc1csc2c1C(c1ccccc1)N(C(=O)CCC(=O)NCc1cccc(C(F)(F)F)c1)CC2 (stereo not shown) [compound 20] | 54% | 0.722 µM | –
16 | O=C(CCC(=O)N1CCc2sccc2C1C1CCCCC1)NCc1cccc(C(F)(F)F)c1 (stereo not shown) [compound 21] | 148% | 0.324 µM | –
17 | CC(C)C1c2ccsc2CCN1C(=O)CCC(=O)NCc1cccc(C(F)(F)F)c1 (stereo not shown) [compound 22] | 139% | 1.22 µM | –
18 | CCCCC1c2ccsc2CCN1C(=O)CCC(=O)NCc1cccc(C(F)(F)F)c1 (stereo not shown) [compound 23] | 146% | 0.947 µM | –
19 | O=C(CCC(=O)N1CCc2sccc2C1c1ccccc1)NCCc1ccccc1 (stereo not shown) [compound 25] | 12% | – | –
20 | Cc1ccccc1CNC(=O)CCC(=O)N1CCc2sccc2C1c1ccccc1 (stereo not shown) [compound 26] | -20% | – | –
21 | O=C(NCc1cccc(C(F)(F)F)c1)C(CC(=O)N1CCc2sccc2C1c1ccccc1)c1ccccc1 (stereo not shown) [compound 27] | 119% | > 0.404 µM | –
22 | C[C@H](CC(=O)N1CCc2sccc2C1c1ccccc1)C(=O)NCc1cccc(C(F)(F)F)c1 (stereo partly shown) [compound 28] | 106% | 0.54 µM | –
23 | O=C(CC(C(=O)N1CCc2sccc2C1c1ccccc1)c1ccccc1)NCc1cccc(C(F)(F)F)c1 (stereo not shown) [compound 29] | -45% | – | IC50 [2]: 0.133 µM
24 | O=C(CC(C(=O)N1CCc2sccc2C1)c1ccccc1)NCc1cccc(C(F)(F)F)c1 (stereo not shown) [compound 30] | -101% | – | IC50 [2]: 0.212 µM
25 | O=C(NCc1cccc(C(F)(F)F)c1)C1CCCCC1C(=O)N1CCc2sccc2C1c1ccccc1 (stereo not shown) [compound 32] | – | 0.414 µM | Fluorimetry % Efficacy @ 10 μM (reti-gabine = 100%) [1]: 110%
26 | C[C@H](CC(=O)NCc1cccc(C(F)(F)F)c1)C(=O)N1CCc2sccc2C1c1ccccc1 (stereo partly shown) [compound 34] | 179% | 0.628 µM | –

Row | SMILES | Emax at 10 µM [3] | EC50 [2] | further results
27 | O=C(CCC(=O)N1CCc2sccc2C1c1ccccc1)NCc1cccc(C(F)(F)F)c1 (stereo not shown) [compound 35] | – | 0.572 µM | –
28 | O=C(CCC(=O)N1CCc2sccc2C1c1ccccc1)NCc1cccc(C(F)(F)F)c1 (stereo not shown) [compound 36] | – | 0.707 µM | –
29 | O=C(CCC(=O)N1CCc2sccc2C1c1ccccc1)NCc1cccc(C(F)(F)F)c1F (stereo not shown) [compound 40] | – | 0.156 µM | –
30 | O=C(CCC(=O)N1CCc2sccc2C1c1ccccc1)NCc1cc(F)cc(C(F)(F)F)c1 (stereo not shown) [compound 41] | – | 0.261 µM | –
31 | Cc1scc2c1CCN(C(=O)CCC(=O)NCc1cccc(C(F)(F)F)c1)C2c1ccccc1 (stereo not shown) [compound 45] | 39% | 0.311 µM | –
32 | COc1ccc(NC(=O)CCC(=O)N2CCc3sccc3C2c2ccc(C)cc2)cc1 (stereo not shown) [compound 46] | 35% | – | –
33 | Cc1ccc(C2c3ccsc3CCN2C(=O)CCC(=O)Nc2ccc3cnn(C)c3c2)cc1 (stereo not shown) [compound 47] | 37% | – | –
34 | Cc1ccc(C2c3ccsc3CCN2C(=O)CCC(=O)NCc2ccccc2)cc1 (stereo not shown) [compound 48] | -15% | – | –
35 | Cc1ccc(C2c3ccsc3CCN2C(=O)CCC(=O)NCCc2ccccc2)cc1 (stereo not shown) [compound 49] | 38% | – | –
36 | Cc1ccc(C2c3ccsc3CCN2C(=O)CCC(=O)NCc2ccncc2)cc1 (stereo not shown) [compound 50] | 10% | – | –
37 | Cc1ccc(C2c3ccsc3CCN2C(=O)CCC(=O)NCCCc2ccccc2)cc1 (stereo not shown) [compound 51] | 38% | – | –
38 | Cc1cccc(C2c3ccsc3CCN2C(=O)CCC(=O)Nc2cccc3nsnc23)c1 (stereo not shown) [compound 52] | 15% | – | –
39 | Cc1cccc(C2c3ccsc3CCN2C(=O)CCC(=O)Nc2ccc3cnn(C)c3c2)c1 (stereo not shown) [compound 53] | 28% | – | –
40 | Cc1cccc(C2c3ccsc3CCN2C(=O)CCC(=O)NCc2ccccn2)c1 (stereo not shown) [compound 54] | 19% | – | –
41 | O=C(CCC(=O)N1CCc2sccc2C1c1ccccc1)NCCC1CCCCC1 (stereo not shown) [compound 245] | – | 0.69 µM | –
42 | O=C(CCC(=O)N1CCc2sccc2C1c1ccccc1)NCC1CCCCC1 (stereo not shown) [compound 247] | – | 1.44 µM | –
43 | Cc1ccc(CNC(=O)CCC(=O)N2CCc3sccc3C2c2ccccc2)cc1C(F)(F)F (stereo not shown) [compound 249] | – | 0.347 µM | –
44 | O=C(CCC(=O)N1CCc2sccc2C1c1ccccc1)NCc1ccc(F)c(C(F)(F)F)c1 (stereo not shown) [compound 250] | – | 0.517 µM | –
45 | CCc1ccccc1C1c2ccsc2CCN1C(=O)CCC(=O)NCc1cccc(C(F)(F)F)c1 (stereo not shown) [compound 251] | – | 0.131 µM | –
46 | CC(C)c1ccccc1C1c2ccsc2CCN1C(=O)CCC(=O)NCc1cccc(C(F)(F)F)c1 (stereo not shown) [compound 252] | – | 1.01 µM | –
47 | Cc1ccsc1C1c2ccsc2CCN1C(=O)CCC(=O)NCc1cccc(C(F)(F)F)c1 (stereo not shown) [compound 254] | – | 0.211 µM | –
48 | Cc1ccccc1C1c2ccsc2CCN1C(=O)CCC(=O)NCc1ccccc1C(F)(F)F (stereo not shown) [compound 256] | – | 0.09 µM | –
49 | Cc1ccccc1C1c2ccsc2CCN1C(=O)CCC(=O)NCc1ccc(C(F)(F)F)cc1 (stereo not shown) [compound 257] | – | 0.547 µM | –
50 | CCCCC1c2sccc2CCN1C(=O)CCC(=O)NCc1cccc(C(F)(F)F)c1 (stereo not shown) [compound 258] | – | 0.306 µM | –
51 | O=C(CCC(=O)N1CCc2sccc2C1CCc1ccccc1)NCc1cccc(C(F)(F)F)c1 (stereo not shown) [compound 261] | – | 0.084 µM | –
52 | Cc1cc(F)ccc1C1c2ccsc2CCN1C(=O)CCC(=O)NCc1cccc(C(F)(F)F)c1 (stereo not shown) [compound 262] | – | 0.166 µM | –

Reference: patent publication US20100105722A1, “Substituted 4,5,6,7-tetrahydrothienopyridines as KCNQ2/3 Modulators” (GRUENENTHAL GmbH, priority 2008, published 2010)
